Data on two compounds can be found in US10058097B2, “Methods to increase corn productivity” (Valent BioSciences Corporation, priority 2016, dated 2018).

Assay type in all cases: in vivo
Experiment [1] deals with corn. As to the kind of experiment: Greenhouse study: Gibberellins, (S)-ABA and Glycine betaine on corn growth. As to conditions: GA3 or GA4 120 mg/liter, GB 10000 mg/liter, (S)-ABA 8.8 mg/liter. The protocol:
(§1) In several of the following examples, corn was grown in greenhouse conditions, which are defined as follows. Seeds of a commercial hybrid variety were sown in Pro-Mix® BX (Pro-Mix is a registered trademark of Premier Horticulture Ltd.) with the addition of Osmocote (14-14-14) and gypsum in three-liter pots. Greenhouses were kept at 25±3° C. under a 16:8 hour photoperiod, with illumination at canopy level of ˜250 μmoles m^−2s^−1. Corn was typically fertigated with Peters 21-5-20+micronutrients, calcium ammonium nitrate and magnesium sulfate. Typical growth rates for corn under these conditions ranged from 4-5 cm/day.
(§2) In most greenhouse studies, spray applications were made. These applications were made in a track sprayer outfitted with a 4001E Teejet® nozzle (Teejet is available from and a registered trademark of Spraying Systems Co., Glendale Heights, Ill., USA) and applied at 40 psi. Although application volumes did vary between some studies, generally, 30 gallons/acre of spray solution was applied. Following spray applications, plants were returned to the greenhouse. Typically, experiments were blocked according to plant size, and a randomized complete block design (RCB) was used.
When gibberellins are combined with specific ratios of (S)-(+)-abscisic acid (“(S)-ABA”), a surprising enhancement of corn growth after application is often observed. The addition of GB to gibberellin+(S)-ABA spray combinations further increases the growth-promoting activity of the mixtures, as is shown in Table 6.

Experiment [2] concerns corn. Kind of experiment: Greenhouse study: GB alone or in combination with GA4, nine days. As to conditions: GA4 120 mg/liter, GB 10,000 mg/liter; n = 7 plants. As to the method:
as §1, §2
(§3) Synergy was determined using the following formula, in which a synergy factor is calculated by the Abbott method: % Cexp=A+B−(AB/100), here % Cexp is the expected efficacy and “in which A and B are the increase in growth (or resistance to stress) levels given by the single [plant growth regulators]. If the ratio between the experimentally observed efficacy of the mixture Cobs and the expected efficacy of the mixture is greater than 1, synergistic interactions are present in the mixture” (Gisi, Synergistic Interaction of Fungicides in Mixtures, The American Phytopathological Society, 86:11, 1273-1279, 1996).
In a greenhouse study, the effect of combining GB with GA4 was studied.

Experiment [3] concerns corn plants. As to the kind of experiment: Greenhouse study: growth of corn after V3 spray with GA3 or GB, nine days. As to conditions: non-stressed greenhouse; spray at V3; GA3 120 mg/liter, GB 3000 mg/liter; n = 7. The protocol:
as §1, §2
In a greenhouse study conducted in Long Grove, Ill., corn plants were sprayed at V3 stage with solutions containing a non-ionic surfactant (0.25%, v/v) at 30 gallons of spray solution/acre and growth was followed for nine days.
as §3
Based on a conservative approach, synergy was determined to be present at ratios of ≥1.10. When grown under non-stressed conditions, GA3 growth was synergized by the addition of 3,000 mg/liter glycine betaine (“GB”), with a synergy factor of 1.65 for growth and 1.68 for growth rate while dry weight/plant was not synergistic with a synergy factor of 0.95.

Experiment [4] concerns greenhouse-grown maize. Kind of experiment: Leaf chlorophyll by SPAD meter, GA3 dose +/- GB. As to conditions: GA3 0 mg/liter, GB 10000 mg/liter; n = 8 plants. As to the method: In the same study, leaf chlorophyll was monitored by measurements with a SPAD meter (Minolta Model 502; Ramsey, N.J.). In this study, the chlorophyll level in the most recently fully-expanded leaf was measured at five different points and the results averaged.

For experiment [5], the system named is greenhouse-grown maize. Kind of experiment: Greenhouse study: effect of GA3 dose +/- GB on growth, 7 and 14 days. As to conditions: GA3 0 mg/liter, GB 10000 mg/liter. As to the method:
as §1, §2, §3
In a separate study, the effect of one rate of GB on various doses of GA3 was studied.

Experiment [6] has as its system corn. As to the kind of experiment: Nutrient stress greenhouse study, GA3 and/or GB, 7 days. As to conditions: GA3 120 mg/liter, GB 10,000 mg/liter; for Change in Height: n = 7 plants. As to the method: as §3
During rainy periods in March-May in the Midwestern United States, nitrogen fertilizer for corn is often limited due to a combination of leaching and mineralization. GB included with GA3 can help overcome the slow growth caused by low nutrients. In a greenhouse study in Long Grove, Ill. we evaluated the effect of GA3, GB and the combination under ‘normal nutrient’ and limited nutrient conditions.

For experiment [7], the system named is potted corn plants. As to the kind of experiment: Chronic drought stress greenhouse study, potted corn, 14 days. As to conditions: 20 Percent Volumetric Water Content, 120 mg/liter GA3, 3000 mg/liter GB, n = 5. The protocol:
In drought stress studies, corn plants were sprayed at the V4 stage with solutions containing a non-ionic surfactant (0.25%, v/v) at 30 gallons of spray solution/acre and growth was determined by change in height from time of treatment or fresh and dry shoot weight measurements 14 days later.
In greenhouse drought stress studies, corn plants were treated and subsequently watered with an automated irrigation system that maintained the soil moisture in the pots at 45% or 20% volumetric water content (“VWC”). Plants set to 20% after treatment took about 4 days without the automated system adding water to those pots to reach 20% VWC and then the automated system added water as needed to maintain 20% VWC. Total soil moisture capacity was 45% VWC and 20% VWC represented drought stress conditions. This would be considered chronic stress, as a lower level of VWC was maintained throughout the experiment after treatment.

Experiment [8] deals with potted corn plants. Kind of experiment: Acute drought stress greenhouse study, potted corn, 7 and 14 days. As to conditions: acute drought stressed; 120 ppm GA3, 3000 ppm GB; spray at V4. The protocol: In a separate acute drought stress greenhouse study conducted in Long Grove, Ill., corn plants were sprayed at V4 stage with solutions containing a non-ionic surfactant (0.25%, v/v) at 30 gallons of spray solution/acre and growth was determined by shoot height increase 7 and 14 days later. After treatment corn plants were not watered with the exception of one treatment of control (aqueous surfactant solution) that were watered as needed (well-watered control).

The subject of experiment [9] is corn plants. As to the kind of experiment: Chilling stress study (10° C. for five days) after spray with GA3 or GB. As to conditions: chilling stress at 10° C. for five days; GA3 120 mg/liter, GB 3000 mg/liter; n = 7 plants. As to the method: In stress studies, plants were subjected to various stresses. In cold stress studies, after spraying, plants were grown in the greenhouse for an additional 48 hours before being measured and moved to a CMP6050 CONVIRON® chamber kept at 10° C. (Conviron is a registered trademark of Controlled Environments Limited Corporation). Illumination was at ˜225 μMoles, and light:dark conditions were on a 12:12 hour photoperiod. After 120 hours of chilling, plants were removed from the cold, measured, and returned to the greenhouse for 48 hours prior to harvest.
as §3
In a greenhouse and growth room study conducted in Long Grove, Ill., corn plants of a commonly grown hybrid were subjected to the following stress regimen: at two days post-foliar application, plants were moved into a controlled environment chamber, where the temperature was maintained at 10° C. with a 12:12 hour photoperiod for five days. At the end of the chilling period, the corn was moved back to the greenhouse for two days before destructive harvest.

For the compound `C=C1C[C@]23C[C@H]1CC[C@H]2[C@@]12CC[C@H](O)[C@@](C)(C(=O)O1)[C@H]2[C@@H]3C(=O)O` [GA4, gibberellin A4], in the experiment with corn [1], the “7 days Change in Height” value is listed as 33.9 cm, the “14 days Change in Height” value is 62.2 cm and the “Dry Weight” value amounted to 8.1 g. Moreover, in the experiment on corn [2], the “Dry Weight” value is reported as 7.68 g, the “Growth Rate” value turned out to be 7.1 cm/day and the “Plant Growth over 9 days” value was determined as 64.1 cm.

For the compound `C[N+](C)(C)CC(=O)[O-]` [GB, Glycine betaine], in the experiment with corn plants [3], the “Dry Weight/Plant” value is reported as 2.75 g, the “Growth Rate” value was 4.49 cm/day and the “Growth over 9 days” value is listed as 40.4 cm. The “Chlorophyll (SPAD reading) 14 days” value with greenhouse-grown maize [4] is 34.0 SPAD reading. For the same compound, in the experiment with greenhouse-grown maize [5], the “Growth Rate, 0-7 day(s)” value was 2.51 cm/day; the “Growth Rate, 0-14 day(s)” value was 6.23 cm/day; the “Plant Growth over 14 days” value came to 43.6 cm. Besides, the “Plant Growth over 7 days” value in the experiment on greenhouse-grown maize [5] (n = 8 plants) is listed as 17.6 cm. Besides, in the experiment on corn [6] (Low Nutrients), the “Dry Weight” value was 2.79 g, the “Leaf Area (L1-L6)” value was 611.73 cm^2 and the “Change in Height” value was 24.54 cm. Also, in the experiment on corn [6] (Normal Nutrients), the “Dry Weight” value is recorded as 3.25 g, the “Leaf Area (L1-L6)” value is on record as 656.76 cm^2 and the “Change in Height” value is given as 35.37 cm. In addition, in the experiment with potted corn plants [7], the “Percent Dry Weight of Drought Stressed Control” value was 94.33% and the “Percent Fresh Weight of Drought Stressed Control” value is 93.16%. In addition, in the experiment on corn [2], the “Dry Weight” value was 7.47 g, the “Growth Rate” value came to 6.1 cm/day and the “Plant Growth over 9 days” value was 55.2 cm. In addition, in the experiment on potted corn plants [8], the “Shoot Growth 7 days after treatment as Percent Increase as compared to Drought Stressed Control” value was 95.9% and the “Shoot Growth 14 days after treatment as Percent Increase as compared to Drought Stressed Control” value worked out at 97.6%. For the same compound, in the experiment on corn plants [9], the “Growth Rate” value is 2.16 cm/day, the “Growth over 9 days” value was found to be 19.41 cm and the “Leaf Area of L1-L5” value was determined as 356.47 cm^2.
